In patent US9850283B2, “Macrocyclic inhibitors of the PD-1/PD-L1 and CD80(B7-1)/PD-L1 protein/protein interactions” (BRISTOL-MYERS SQUIBB COMPANY, priority 2013, dated 2017):
Like-named read-outs stand apart in the source and are kept apart here. Positions of bridges follow the written chain, without caps; N, C: chain ends. Non-standard residues stand in square brackets, D forms with d. Residues, ends and D or L forms follow the SMILES beside them. ξ: configuration not given here. *: point of attachment. Phe(3,4,5-F3) = N[C@@H](Cc1cc(F)c(F)c(F)c1)C(=O)O; Phe(4-CF3) = N[C@@H](Cc1ccc(C(F)(F)F)cc1)C(=O)O; Trp(5-OH) = N[C@@H](Cc1c[nH]c2ccc(O)cc12)C(=O)O; d(cisHyp) = O=C(O)[C@H]1C[C@@H](O)CN1; Bta = N[C@@H](Cc1csc2ccccc12)C(=O)O; Hyp = O=C(O)[C@@H]1C[C@@H](O)CN1; NMeF = CN[C@@H](Cc1ccccc1)C(=O)O; 3Pal = N[C@@H](Cc1cccnc1)C(=O)O; NMehSer = CN[C@@H](CCO)C(=O)O; NMeNle = CCCC[C@H](NC)C(=O)O; NMeS = CN[C@@H](CO)C(=O)O; hSer = N[C@@H](CCO)C(=O)O; NMeA = CN[C@@H](C)C(=O)O; Dab = NCC[C@H](N)C(=O)O; Bn = c1ccc(C*)cc1; ξC = NC(CS)C(=O)O; Sar = CNCC(=O)O

Columns and labels:
Human PD-L1/PD-1 = target: T1, Human PD-L1/PD-1 (Homo sapiens, UniProt Q9NZQ7); assay: HTRF PD-1-Ig/PD-L1-His binding assay (human PD-L1)
T1 construct: made in house; host or cells: HEK293T
T1 sequence (Q9NZQ7 with tags, fused parts or gaps): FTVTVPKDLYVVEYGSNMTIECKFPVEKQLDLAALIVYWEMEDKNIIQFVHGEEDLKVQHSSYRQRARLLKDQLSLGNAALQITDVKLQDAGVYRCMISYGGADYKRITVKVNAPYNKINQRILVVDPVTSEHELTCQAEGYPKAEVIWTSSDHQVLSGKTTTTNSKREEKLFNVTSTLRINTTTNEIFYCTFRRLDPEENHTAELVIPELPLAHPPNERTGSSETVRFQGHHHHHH
Summary of the method: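 The time-resolved fluorescence signal comes from Eu-cryptate anti-Ig (1 nM) and APC anti-His (20 nM) antibodies bound to a PD-1-Ig/PD-L1-His complex. Both partners lack transmembrane regions.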

[1] = target: T2, LK35.2-hPD-L1 cells / PE-labeled PD-1-Ig (Homo sapiens, UniProt Q9NZQ7); assay: LK35.2-hPD-L1 cell binding high-content screening assay; assay type: cell-based
T2 construct: expressed in transfected cells; host or cells: LK35.2 mouse B cell line
T2 sequence (Q9NZQ7 19-290): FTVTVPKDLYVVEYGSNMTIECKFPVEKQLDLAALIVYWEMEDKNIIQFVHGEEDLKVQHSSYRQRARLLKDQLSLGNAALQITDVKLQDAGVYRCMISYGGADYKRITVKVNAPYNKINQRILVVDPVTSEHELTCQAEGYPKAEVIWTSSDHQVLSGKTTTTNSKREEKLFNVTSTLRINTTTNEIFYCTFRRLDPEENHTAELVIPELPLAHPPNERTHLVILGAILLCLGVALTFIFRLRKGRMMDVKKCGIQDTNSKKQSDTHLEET
Summary of the method: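 Fluorescent PD-1-Ig binding to PD-L1-expressing LK35.2 cells, imaged after washing. Conditions: 1 nM PE-PD-1-Ig, 37 °C, 1 h, RPMI with 10% fetal calf serum.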

[2] = cluster symbol, read-out: HTRF IC50 cluster
[3] = cell binding assay, cell line not given, cluster symbol, read-out: CBA IC50 cluster
[4] = cluster symbol, cell line of CBA not given (LK35.2-hPD-L1 or 293T-hPD-L1), read-out: CBA IC50 cluster

IC50 (Human PD-L1/PD-1; [2]) [nM] | IC50 [1, 3] [nM] | IC50 (Human PD-L1/PD-1; read-out: HTRF IC50 value) [nM] | IC50 ([1]; cell line of CBA not given (LK35.2-hPD-L1 or 293T-hPD-L1), read-out: CBA IC50 value) [nM] | IC50 [1, 4] [nM] | Compound
6.76 to 30.3 | 0.158 to 4.71 | – | – | – | CCCC[C@H]1C(=O)N(C)[C@@H](CCCC)C(=O)N[C@@H](CCCNC(=N)N)C(=O)NC(C(=O)NCC(N)=O)CSCC(=O)N[C@@H](Cc2ccc(O)cc2)C(=O)N(C)[C@@H](C)C(=O)N[C@@H](CC(N)=O)C(=O)N2CCC[C@H]2C(=O)N[C@@H](Cc2cnc[nH]2)C(=O)N[C@@H](CCO)C(=O)N2C[C@H](O)C[C@H]2C(=O)N[C@@H](Cc2c[nH]c3ccccc23)C(=O)N[C@@H](CO)C(=O)N[C@@H](Cc2c[nH]c3ccccc23)C(=O)N1C (stereo partly shown) [Example 9051] ({CH2CO}-Y[NMeA]NPH[hSer][Hyp]WSW[NMeNle][NMeNle]R[ξC]G-NH2; thioether N-14)
0.385 to 6.74 | 0.158 to 4.71 | – | – | – | CCCC[C@H]1C(=O)N(C)[C@@H](CCCC)C(=O)N[C@@H](CCC(=O)O)C(=O)N[C@H](C(=O)NCC(N)=O)CSCC(=O)N[C@@H](Cc2ccc(O)cc2)C(=O)N(C)[C@@H](C)C(=O)N[C@@H](CC(=O)O)C(=O)N2CCC[C@H]2C(=O)N[C@@H](Cc2c[nH]cn2)C(=O)N[C@@H](CCCCN)C(=O)N2C[C@H](OCc3ccccc3)C[C@H]2C(=O)N[C@@H](Cc2c[nH]c3ccccc23)C(=O)N[C@@H](CCCCN)C(=O)N[C@@H](Cc2c[nH]c3ccccc23)C(=O)N1C [Example 14004] ({CH2CO}-Y[NMeA]DPHK[Hyp](Bn)WKW[NMeNle][NMeNle]ECG-NH2; thioether N-14)
> 30.5 | > 74.3 | – | – | – | CCCC[C@H]1C(=O)N(C)[C@@H](CCCC)C(=O)N[C@@H](CC(=O)O)C(=O)N[C@H](C(=O)NCC(N)=O)CSCC(=O)N[C@@H](Cc2ccccc2)C(=O)N(C)[C@@H](C)C(=O)N[C@@H](CC(N)=O)C(=O)N2CCC[C@H]2C(=O)N[C@@H](Cc2cnc[nH]2)C(=O)N[C@@H](CC(C)C)C(=O)N(C)CC(=O)N[C@@H](Cc2c[nH]c3ccccc23)C(=O)N[C@@H](CO)C(=O)N[C@@H](Cc2c[nH]c3ccccc23)C(=O)N1C [Example 5030] ({CH2CO}-F[NMeA]NPHL[Sar]WSW[NMeNle][NMeNle]DCG-NH2; thioether N-14)
– | – | 750 | 1730 | – | CCCC[C@H]1C(=O)N(C)CC(=O)N[C@@H](CC(=O)O)C(=O)N[C@@H](C(C)C)C(=O)N(C)[C@@H](Cc2ccccc2)C(=O)N[C@@H](Cc2ccc(O)cc2)C(=O)N(C)CC(=O)N[C@@H](Cc2c[nH]c3ccc(O)cc23)C(=O)N[C@@H](Cc2ccc(O)cc2)C(=O)N[C@@H](CC(C)C)C(=O)N[C@H](C(=O)NCC(N)=O)CSCC(=O)N[C@@H](Cc2ccccc2)C(=O)N(C)[C@@H](Cc2ccccc2)C(=O)N1C [Example 3147] ({CH2CO}-F[NMeF][NMeNle][Sar]DV[NMeF]Y[Sar][Trp(5-OH)]YLCG-NH2; thioether N-13)
0.385 to 6.74 | 4.78 to 72.9 | – | – | – | CCCC[C@H]1C(=O)N(C)[C@@H](CCCC)C(=O)N[C@@H](Cc2ccccn2)C(=O)N[C@H](C(=O)NCC(N)=O)CSCC(=O)N[C@@H](Cc2ccc(O)cc2)C(=O)N(C)[C@@H](C)C(=O)N[C@@H](CC(N)=O)C(=O)N2CCC[C@H]2C(=O)N[C@@H](Cc2cnc[nH]2)C(=O)N[C@@H](CC(C)C)C(=O)N2C[C@H](O)C[C@H]2C(=O)N[C@@H](Cc2c[nH]c3ccccc23)C(=O)N[C@@H](CO)C(=O)N[C@@H](Cc2c[nH]c3ccccc23)C(=O)N1C [Example 7032]
> 30.5 | – | – | – | > 74.3 | CCCC[C@H]1C(=O)N(C)CC(=O)N[C@@H](CC(=O)O)C(=O)N[C@@H](C(C)C)C(=O)N(C)[C@@H](Cc2ccccc2)C(=O)N[C@@H](Cc2ccc(O)cc2)C(=O)N(C)CC(=O)N[C@@H](Cc2c[nH]c3ccccc23)C(=O)N[C@@H](Cc2ccc(C(F)(F)F)cc2)C(=O)N[C@@H](CC(C)C)C(=O)N[C@H](C(=O)NCC(N)=O)CSCC(=O)N[C@@H](Cc2ccccc2)C(=O)N(C)[C@@H](Cc2ccccc2)C(=O)N1C [Example 3138] ({CH2CO}-F[NMeF][NMeNle][Sar]DV[NMeF]Y[Sar]W[Phe(4-CF3)]LCG-NH2; thioether N-13)
6.76 to 30.3 | 4.78 to 72.9 | – | – | – | CCCC[C@H]1C(=O)N(C)[C@@H](CCCC)C(=O)N[C@@H](CCCNC(=N)N)C(=O)N[C@H](C(=O)NCC(N)=O)CSCC(=O)N[C@@H](Cc2cccnc2)C(=O)N(C)[C@@H](C)C(=O)N[C@@H](CC(N)=O)C(=O)N2CCC[C@H]2C(=O)N[C@@H](Cc2c[nH]cn2)C(=O)N[C@@H](CC(C)C)C(=O)N2C[C@H](O)C[C@H]2C(=O)N[C@@H](Cc2c[nH]c3ccccc23)C(=O)N[C@@H](CO)C(=O)N[C@@H](Cc2c[nH]c3ccccc23)C(=O)N1C [Example 7024] ({CH2CO}-[3Pal][NMeA]NPHL[Hyp]WSW[NMeNle][NMeNle]RCG-NH2; thioether N-14)
0.385 to 6.74 | 0.158 to 4.71 | – | – | – | CCCC[C@H]1C(=O)N(C)[C@@H](CCCC)C(=O)N[C@@H](CCC(=O)O)C(=O)N[C@H](C(=O)NCC(N)=O)CSCC(=O)N[C@@H](Cc2ccc(O)cc2)C(=O)N(C)[C@@H](C)C(=O)N[C@@H](CCN)C(=O)N2CCC[C@H]2C(=O)N[C@@H](Cc2c[nH]cn2)C(=O)N[C@@H](CCC(=O)O)C(=O)N2C[C@H](O)C[C@H]2C(=O)N[C@@H](Cc2c[nH]c3ccccc23)C(=O)N[C@@H](CCCCN)C(=O)N[C@@H](Cc2c[nH]c3ccccc23)C(=O)N1C [Example 5112] ({CH2CO}-Y[NMeA][Dab]PHE[Hyp]WKW[NMeNle][NMeNle]ECG-NH2; thioether N-14)
0.385 to 6.74 | 0.158 to 4.71 | – | – | – | CCCC[C@H]1C(=O)N(C)[C@@H](CCOC)C(=O)N[C@@H](CCCNC(=N)N)C(=O)N[C@H](C(=O)NCC(N)=O)CSCC(=O)N[C@@H](Cc2ccc(O)cc2)C(=O)N(C)[C@@H](C)C(=O)N[C@@H](CC(=O)O)C(=O)N2CCC[C@H]2C(=O)N[C@@H](Cc2cnc[nH]2)C(=O)N[C@@H](CC(C)C)C(=O)N2CCC[C@@H]2C(=O)N[C@@H](Cc2c[nH]c3ccccc23)C(=O)N[C@@H](CO)C(=O)N[C@@H](Cc2c[nH]c3ccccc23)C(=O)N1C [Example 9005] ({CH2CO}-Y[NMeA]DPHL[dP]WSW[NMeNle][NMehSer](Me)RCG-NH2; thioether N-14)
0.385 to 6.74 | – | – | – | 0.158 to 4.71 | CCCC[C@H]1C(=O)N2C[C@H](O)C[C@@H]2C(=O)N[C@@H](CC(=O)O)C(=O)N[C@@H](C(C)C)C(=O)N(C)[C@@H](Cc2ccccc2)C(=O)N[C@@H](Cc2ccc(O)cc2)C(=O)N2CCC[C@@H]2C(=O)N[C@@H](Cc2c[nH]c3ccccc23)C(=O)N[C@@H](Cc2ccc(O)cc2)C(=O)N[C@@H](CC(C)C)C(=O)N[C@H](C(=O)NCC(N)=O)CSCC(=O)N[C@@H](Cc2cc(F)c(F)c(F)c2)C(=O)N(C)[C@@H](Cc2ccccc2)C(=O)N1C [Example 3183] ({CH2CO}-[Phe(3,4,5-F3)][NMeF][NMeNle][d(cisHyp)]DV[NMeF]Y[dP]WYLCG-NH2; thioether N-13)
0.385 to 6.74 | 4.78 to 72.9 | – | – | – | CCCC[C@H]1C(=O)N(C)[C@@H](C)C(=O)N[C@@H](CCCNC(=N)N)C(=O)NC(C(=O)NCC(N)=O)CSCC(=O)N[C@@H](Cc2ccc(O)cc2)C(=O)N(C)[C@@H](C)C(=O)N[C@@H](CC(N)=O)C(=O)N2CCC[C@H]2C(=O)N[C@@H](CO)C(=O)N[C@@H](CC(C)C)C(=O)N2CCC[C@H]2C(=O)N[C@@H](Cc2c[nH]c3ccccc23)C(=O)N[C@@H](CO)C(=O)N[C@@H](Cc2csc3ccccc23)C(=O)N1C (stereo partly shown) [Example 9111] ({CH2CO}-Y[NMeA]NPSLPWS[Bta][NMeNle][NMeA]R[ξC]G-NH2; thioether N-14)
6.76 to 30.3 | 4.78 to 72.9 | – | – | – | CCCC[C@H]1C(=O)N(C)[C@@H](CCCC)C(=O)N[C@@H](CCCNC(=N)N)C(=O)NC(C(=O)NCC(N)=O)CSCC(=O)N[C@@H](Cc2ccc(O)cc2)C(=O)N(C)[C@@H](CO)C(=O)N[C@@H](CC(N)=O)C(=O)N2CCC[C@H]2C(=O)N[C@@H](Cc2cnc[nH]2)C(=O)N[C@@H](CC(C)C)C(=O)N2CCC[C@H]2C(=O)N[C@@H](Cc2c[nH]c3ccccc23)C(=O)N[C@@H](CO)C(=O)N[C@@H](Cc2c[nH]c3ccccc23)C(=O)N1C (stereo partly shown) [Example 9038] ({CH2CO}-Y[NMeS]NPHLPWSW[NMeNle][NMeNle]R[ξC]G-NH2; thioether N-14)
0.385 to 6.74 | 0.158 to 4.71 | – | – | – | CCCC[C@H]1C(=O)N(C)[C@@H](CCCC)C(=O)N[C@@H](CCN)C(=O)N[C@H](C(=O)NCC(N)=O)CSCC(=O)N[C@@H](Cc2ccc(O)cc2)C(=O)N(C)[C@@H](C)C(=O)N[C@@H](CCN)C(=O)N2CCC[C@H]2C(=O)N[C@@H](Cc2c[nH]cn2)C(=O)N[C@@H](CCC(=O)O)C(=O)N2C[C@H](O)C[C@H]2C(=O)N[C@@H](Cc2c[nH]c3ccccc23)C(=O)N[C@@H](CCN)C(=O)N[C@@H](Cc2c[nH]c3ccccc23)C(=O)N1C [Example 5104] ({CH2CO}-Y[NMeA][Dab]PHE[Hyp]W[Dab]W[NMeNle][NMeNle][Dab]CG-NH2; thioether N-14)
6.76 to 30.3 | 0.158 to 4.71 | – | – | – | CCCC[C@H]1C(=O)N(C)[C@@H](CCCC)C(=O)N[C@@H](CCCNC(=N)N)C(=O)NC(C(=O)NCC(N)=O)CSCC(=O)N[C@@H](Cc2ccc(O)cc2)C(=O)N(C)[C@@H](C)C(=O)N[C@@H](CC(N)=O)C(=O)N2C[C@H](O)C[C@H]2C(=O)N[C@@H](Cc2cnc[nH]2)C(=O)N[C@@H](CC(C)C)C(=O)N2CCC[C@@H]2C(=O)N[C@@H](Cc2c[nH]c3ccccc23)C(=O)N[C@@H](CO)C(=O)N[C@@H](Cc2csc3ccccc23)C(=O)N1C (stereo partly shown) [Example 9001] ({CH2CO}-Y[NMeA]N[Hyp]HL[dP]WS[Bta][NMeNle][NMeNle]R[ξC]G-NH2; thioether N-14)
